[5mC] = 5-methylcytosine; m = 2'-O-methyl; r = 2'-OH (RNA)
System: fluorescent peptide that mimics phenylalanine synthetase
Assay: Binding of yeast tRNAPhe ASL RNA oligomers to a phenylalanine synthetase peptide mimic
Conditions: compared with the native RNA oligomer or the unmodified RNA oligomer; FIG. 2
Procedure: A set of experiments was conducted to identify an RNA oligomer substrate to be used in an assay to identify substrates for use in identifying inhibitors of tRNA binding to a phenylalanine synthetase from yeast. A peptide was first identified for use as a phenylalanine synthetase mimic. The peptide was labeled with a fluorescent peptide for use in detection in binding assays.
A series of RNA oligomer substrates were also synthesized containing modified nucleotides (FIG. 2).
To determine binding affinity, an assay of ASL for yeast tRNA^phe was prepared varying only in the number of post-transcriptional nucleotide base modifications. This array was probed using a peptide from a phage display library that bound to an ASL containing 3 modifications. The affect of modification on the affinity of a peptide to an RNA substrate-sequence (Sequence A in FIG. 2: 5′-CCAGACUGAAGAUCUGG) (SEQ ID NO: 18) is the primary unmodified yeast ASL^Phe. Sequence B in FIG. 2 (5′-CCAGACmUGm AAGAUm^5CUGG) (SEQ ID NO: 19) is a template ASL sequence indicating the locations of the modified nucleotides for the various combinations of modified nucleotide bases in the mimics of the anticodon stem loop. Sequence C in FIG. 2 (5′-CCAGACmUGmAAm1GAΨm^5CUGG) (SEQ ID NO: 20) is the sequence of the native yeast tRNA^phe. […]

5′-CCAGACmUGm AAGAUm^5CUGG (CCAGACUGAAGAUCUGG; sugars from the 5' end r5 m1 r1 m1 r9, [5mC] at 14, backbone not given here; listed as Yersinia enterocolitica)
affinity for a fluorescent peptide that mimics phenylalanine synthetase: greater affinity
